How the values were obtained:
Format in all cases: in vivo
Set-up in all cases: scale not given here
[1] = system: Echinochloa oryzicola Vasing; assay: Herbicidal effects in paddy field soil treatment (Test Example 1); conditions: paddy field soil treatment (Test Example 1); criteria of Table 138
In short: (§1)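 Application rate was 1000 g active ingredient per hectare, delivered as a diluted wettable powder onto the surface of 3 cm flood water, the day after seeds were sown in paddy soil. Effects were rated 21 days later.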

[2] = system: Monochoria vaginalis (Burm. f.) Presl var. plantaginea (Roxb.) Solms-Laub.; assay: as above; conditions: paddy field soil treatment (Test Example 1); criteria of Table 138
In short: as §1

[3] = system: Scirpus juncoides Roxb. var. ohwianus. T. Koyama; assay: as above; conditions: paddy field soil treatment (Test Example 1); criteria of Table 138
In short: as §1

[4] = system: Abutilon theophrasti medicus; assay: Herbicidal effects in upland field soil treatment (Test Example 2); conditions: 1000 g active ingredient per hectare, 21st day after treatment, criteria of Table 138
In short: (§2)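 A wettable powder formulation, diluted with water, is applied to the soil surface after sowing and covering seeds in upland field soil, at a rate of 1000 g active ingredient per hectare. After greenhouse growth, herbicidal activity is graded by criteria at 21 days.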

[5] = system: Amaranthus viridis L.; assay: as above; conditions: 1000 g active ingredient per hectare, 21st day after treatment, criteria of Table 138
In short: as §2

[6] = system: Abutilon theophrasti medicus; assay: Herbicidal effects in upland field foliar treatment (Test Example 3); conditions: 1000 g of the active ingredient per hectare, 14th day after the treatment, wettable powder, criteria of Table 138
In short: (§3)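 Dose was 1000 g of active ingredient per hectare, sprayed as a wettable powder in water at a volume of 1000 L/ha onto foliage of two-week-old greenhouse-grown plants in upland soil. Damage was assessed against rating criteria on the 14th day.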

[7] = system: Amaranthus viridis L.; assay: as above; conditions: 1000 g of the active ingredient per hectare, 14th day after the treatment, wettable powder, criteria of Table 138
In short: as §3

[8] = system: Echinochloa crus-galli (L.) P. Beauv. var. crus-galli; assay: as above; conditions: 1000 g of the active ingredient per hectare, 14th day after the treatment, wettable powder, criteria of Table 138
In short: as §3

Compound | herbicidal effect (index) on Echinochloa oryzicola Vasing [1] | herbicidal effect (index) on Monochoria vaginalis (Burm. f.) Presl var. plantaginea (Roxb.) Solms-Laub. [2] | herbicidal effect (index) on Scirpus juncoides Roxb. var. ohwianus. T. Koyama [3] | herbicidal effect (index) on Abutilon theophrasti medicus [4] | herbicidal effect (index) on Amaranthus viridis L. [5] | herbicidal effects on Abutilon theophrasti medicus [6] | herbicidal effects on Amaranthus viridis L. [7] | herbicidal effects on Echinochloa crus-galli (L.) P. Beauv. var. crus-galli [8]
O=C1CCCC(O)=C1C(=O)c1nc2cccnc2n(-c2ccccc2OC(F)F)c1=O [IV-85] | 5 | 5 | 5 | 5 | 5 | 5 | 5 | 5
O=C1CCCC(O)=C1C(=O)c1nc2cccnc2n(-c2cccc(OC(F)F)c2)c1=O [IV-90] | 5 | 5 | 5 | 5 | 5 | 5 | 5 | 5
O=C1CCCC(O)=C1C(=O)c1nc2cccnc2n(-c2ccc(OC(F)F)cc2)c1=O [IV-95] | 5 | 5 | 5 | 5 | 5 | 5 | 5 | 5
O=C1CCCC(O)=C1C(=O)c1nc2cccnc2n(-c2ccccc2OC(F)(F)F)c1=O [IV-100] | 5 | 5 | 5 | 5 | 5 | 5 | 5 | 5
Cc1ccc(-n2c(=O)c(C(=O)C3=C(O)CCCC3=O)nc3cccnc32)cc1F [IV-222, 4-(3-fluoro-4-methylphenyl)-2-(2-hydroxy-6-oxo-1-cyclohexenecarbonyl)-pyrido[2,3-b]pyrazin-3 (4H)-one] | 5 | 5 | 5 | 5 | 5 | 5 | 5 | 5
O=C1CCCC(O)=C1C(=O)c1cnccn1 [comparative compound A, reference compound] | 2 | 0 | 0 | 1 | 0 | 2 | 1 | 0
O=C1CCCC(O)=C1C(=O)c1ccc2ccccc2n1 [comparative compound B, reference compound] | 0 | 0 | 0 | 2 | 2 | 5 | 1 | 0
